Data set [1] deals with MDA-MB-435 (melanoma) cancer cell line. Put plainly: Cytotoxicity assay, MDA-MB-435 cells. The settings on record: for IC50: Homo sapiens, MDA-MB-435, 72 h, read-out: IC50 values, MDA-MB-435; for factor by which activity is reduced relative to compound 5: MDA-MB-435 cells, versus 5. The data set is classed as cell-based, human.
Data set [2] has as its system HT-29 (colon) cancer cell line. Put plainly: Cytotoxicity assay, HT-29 cells. The data set is classed as cell-based, human. The conditions noted are these: for IC50: Homo sapiens, HT-29, 72 h, read-out: IC50 values, HT-29.
The nature of data set [3]: Stability in solution. The conditions noted are these: CDCl3. The data set is classed as physicochemical.

In the case of `COc1cc(O)c(Cl)c2c1C(=O)O[C@@H](C)CC[C@@H](O)CCCCC(=O)C2` [Compound 11, 8,9-dihydrogreensporone D], the IC50 in data set [1] and in data set [2] was more than 20 µM each time. With `COc1cc(O)cc2c1C(=O)O[C@@H](C)CCC(=O)CC/C=C/C(=O)C2` [Compound 4, dechlorogreensporone A], in data set [1], the “factor by which activity is reduced relative to compound 5” value is approximately 5.

For `COc1cc(O)cc2c1C(=O)O[C@@H](C)CCCCCCCC(=O)C2` [Compound 7, 8,9-dihydrogreensporone C], the IC50 in data set [1] and in data set [2] was more than 20 µM in each case. With `COc1cc(O)c(Cl)c2c1C(=O)O[C@@H](C)CC[C@@H](O)CC/C=C\C(=O)C2` [Compound 9, greensporone E], the IC50 in data set [1] and in data set [2] was more than 20 µM each time. Consider `COc1cc(O)cc2c1C(=O)O[C@@H](C)CC[C@@H](O)CC/C=C/C(=O)C2` [Compound 10, dechlorogreensporone D], for which the “factor by which activity is reduced relative to compound 5” value in data set [1] is approximately 4. `C[C@H]1CCCCC/C=C/C(=O)Cc2cc(O)cc(O)c2C(=O)O1` [Compound 6, O-desmethylgreensporone C]: the “factor by which activity is reduced relative to compound 5” value in data set [1] worked out at 5; in data set [2] (HT-29 cells, versus 5), 2. Consider `COc1cc(O)cc2c1C(=O)O[C@@H](C)CC[C@H]1CC[C@H](CC(=O)C2)O1` [Compound 14, greensporone G], for which the IC50 in data set [1] and in data set [2] was more than 20 µM throughout.

With `COc1cc(O)c(Cl)c2c1C(=O)O[C@@H](C)CCC(=O)CC/C=C/C(=O)C2` [Compound 1, greensporone A], the “factor by which activity is reduced relative to compound 5” value in data set [1] is recorded as approximately 5.

Consider `COc1cc(O)c(Cl)c2c1C(=O)O[C@@H](C)CCC(=O)CCCCC(=O)C2` [Compound 3, 8,9-dihydrogreensporone A], for which the IC50 in data set [1] and in data set [2] was more than 20 µM each time.

For the compound `COc1cc(O)c(Cl)c2c1C(=O)O[C@@H](C)CC[C@@H](O)CC/C=C/C(=O)C2` [Compound 8, greensporone D], the stability in solution entry in data set [3] is on record as “converted to 12”.

On to `COc1cc(O)cc2c1C(=O)O[C@@H](C)CC[C@H]1CC[C@@H](CC(=O)C2)O1` [Compound 13, dechlorogreensporone F], for which the IC50 in data set [1] and in data set [2] was more than 20 µM each time.

On to `COc1cc(O)c(Cl)c2c1C(=O)O[C@@H](C)CCC(=O)CC/C=C\C(=O)C2` [Compound 2, greensporone B], for which the IC50 in data set [1] and in data set [2] was more than 20 µM in each case.

The values are drawn from article PMC4176394 (Journal of Natural Products, 2014).
